# PubChem BioAssay (NCI)
#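 Values below derive from 48-hour exposures of cells grown in 96-well plates, with endpoints linearly interpolated between the two concentrations bracketing the appropriate inhibition level. At the GI50, growth is halved. TGI is the concentration that stops growth completely.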 Where a SMILES comes first, the peptide text is derived from it. [ ]: non-standard residue; d: D form. The star is where a group is joined. Phe(4-NO2) = N[CH](Cc1ccc([N+](=O)[O-])cc1)C(=O)O; Cbz = O=C(OCc1ccccc1)*
# Assays:
# Assay in all cases: NCI tumour cell line growth inhibition, 48 h
# ACHN renal = system: ACHN renal
# CAKI-1 renal = system: CAKI-1 renal
# HCC-2998 colon = system: HCC-2998 colon
# HOP-62 NSCLC = system: HOP-62 NSCLC
# MALME-3M melanoma = system: MALME-3M melanoma
# MDA-MB-435 = system: MDA-MB-435
# MDA-N = system: MDA-N
# NCI-H522 lung = system: NCI-H522 lung
# NCI/ADR-RES ovarian = system: NCI/ADR-RES ovarian
# SNB-19 CNS = system: SNB-19 CNS
# SR leukemia = system: SR leukemia
# SW-620 colon = system: SW-620 colon
# UACC-257 melanoma = system: UACC-257 melanoma
SMILES,TGI (ACHN renal) [µM],TGI (CAKI-1 renal) [µM],TGI (HCC-2998 colon) [µM],TGI (HOP-62 NSCLC) [µM],TGI (MALME-3M melanoma) [µM],TGI (MDA-MB-435) [µM],TGI (MDA-N) [µM],TGI (NCI-H522 lung) [µM],TGI (NCI/ADR-RES ovarian) [µM],TGI (SNB-19 CNS) [µM],TGI (SR leukemia) [µM],TGI (SW-620 colon) [µM],TGI (UACC-257 melanoma) [µM],GI50 (SR leukemia) [µM]
Fc1nc(-c2c3ccccc3c3sc4ccccc4n23)nc(N2CCOCCOCCOCCOCC2)n1,> 100,> 100,> 100,> 100,> 100,> 100,> 100,> 100,> 100,> 100,68.6,> 100,> 100,
CCOC(=O)CCC(NC(=O)OCc1ccccc1)C(=O)NC(CCC(=O)OCC)C(=O)NC(CCC(=O)OCC)C(=O)NC(CCC(=O)OCC)C(=O)NC(CCC(=O)OCC)C(=O)NC(Cc1ccc([N+](=O)[O-])cc1)C(=O)NC(CCC(=O)OCC)C(=O)NC(CCC(=O)OCC)C(=O)NC(CCC(=O)OCC)C(=O)NC(CCC(=O)OCC)C(=O)NC(CCC(=O)OCC)C(=O)OCC (stereo not drawn) (Cbz-E(OEt)E(OEt)E(OEt)E(OEt)E(OEt)[Phe(4-NO2)]E(OEt)E(OEt)E(OEt)E(OEt)E(OEt)-OEt; configuration not given here),> 50,,> 50,> 50,> 50,> 50,> 50,> 50,> 50,> 50,> 50,> 50,,
COc1ccc(-c2c(C#N)c(N)nc(Sc3ccccc3N)c2C#N)cc1,51.4,> 65.9,> 100,32.6,42.4,> 100,> 100,62.5,98.4,> 55.5,> 100,> 100,> 100,
c1ccc([P+](Cc2ccc(C[P+](c3ccccc3)(c3ccccc3)c3ccccc3)s2)(c2ccccc2)c2ccccc2)cc1,> 100,> 100,> 100,> 100,> 100,> 100,> 100,> 100,> 100,> 100,> 100,> 100,> 100,
O=C(N/N=C\c1ccc([N+](=O)[O-])cc1)Nc1ccc2ccccc2c1,> 100,> 100,62.9,51.2,51.7,> 100,> 100,68.4,> 100,> 100,> 100,53.6,> 100,
CSc1cc(Cl)c(C(=O)Nc2ccccc2)cc1S(=O)(=O)n1cc[nH]c1=O,> 100,> 100,> 100,> 100,> 100,> 100,> 100,> 100,> 100,> 100,> 100,> 100,> 100,
CSCCCNC(=O)c1csc(-c2csc(CCNC(=O)CNC(=O)OC(C)(C)C)n2)n1,> 100,> 100,> 100,> 100,> 100,> 100,> 100,> 100,> 100,> 100,> 100,> 100,> 100,
CCOc1ccc(NC(=O)/C=C/c2ccco2)cc1,> 100,> 100,> 100,,> 100,22,> 100,> 100,> 100,> 100,> 100,> 100,> 100,
C=CCNC(=S)NC=C(C(N)=O)C(N)=O,> 100,> 100,> 100,> 100,> 100,> 100,> 100,> 100,> 100,> 100,> 100,> 100,> 100,
O=C1/C(=C/c2ccc([N+](=O)[O-])cc2)Oc2cc(O)ccc21,56.1,58.7,> 100,> 100,,> 100,60.2,65.6,88.3,> 100,46.1,> 100,> 100,
Clc1nc(NC23CC4CC(CC(C4)C2)C3)nc(NC23CC4CC(CC(C4)C2)C3)n1,> 100,> 100,> 100,> 100,> 100,> 100,> 100,,> 100,> 100,> 100,> 100,> 100,
O=C(O)CNc1ncc2c(n1)-c1ccccc1OC2,> 100,> 100,,> 100,> 100,> 100,> 100,,> 100,> 100,> 100,> 100,> 100,
ON[C@@H]1C=C[C@H](n2cnc3c(NC4CC4)ncnc32)C1,> 100,> 100,> 100,> 100,> 100,> 100,> 100,> 100,> 100,> 100,> 100,> 100,> 100,
CCc1cn(C2CC(CO)C(CO)S2)c(=O)[nH]c1=O (stereo not drawn),> 100,> 100,> 100,> 100,> 100,> 100,> 100,> 100,> 100,> 100,> 100,> 100,> 100,> 100
COc1cccc(-c2nc(N)c(C#N)c3c2CCS(=O)(=O)c2ccc(C)cc2-3)c1,> 100,> 100,> 100,> 100,> 100,> 100,> 42.6,> 25.6,> 88,> 100,5.14,> 100,> 100,
CCC(=O)NC(NNS(=O)(=O)c1ccc(C)cc1)(C(F)(F)F)C(F)(F)F,> 100,> 100,> 10,> 100,> 100,48,54.3,62.4,85.2,> 100,> 100,> 100,> 100,
NC(N)=NS(=O)(=O)c1ccc(NCc2cccc3c(=O)c4ccc(Cl)cc4oc23)cc1,> 13.6,> 15,> 25,> 18.9,> 19.2,> 25,> 19.1,> 7.85,> 14,22.2,> 25,> 16.8,> 25,

SMILES,TGI (ACHN renal) [µM],TGI (CAKI-1 renal) [µM],TGI (HCC-2998 colon) [µM],TGI (HOP-62 NSCLC) [µM],TGI (MALME-3M melanoma) [µM],TGI (MDA-MB-435) [µM],TGI (MDA-N) [µM],TGI (NCI-H522 lung) [µM],TGI (NCI/ADR-RES ovarian) [µM],TGI (SNB-19 CNS) [µM],TGI (SR leukemia) [µM],TGI (SW-620 colon) [µM],TGI (UACC-257 melanoma) [µM],GI50 (SR leukemia) [µM]
COC(=O)c1c(C)c2c(c(C)c1O)OC(=O)c1c(C)cc(O)c(C=O)c1O2,> 100,,> 100,> 100,> 100,> 100,> 100,> 100,> 100,> 100,> 100,> 100,> 100,
NC(=S)N/N=C1\CCc2ccccc2C1,> 100,,> 100,> 100,> 100,> 100,> 100,> 100,> 100,> 100,> 100,> 100,> 100,
COc1cccc(C2c3cc4c(cc3OC(N3CCCC3)C2c2ccccc2)OCO4)c1O (stereo not drawn),25.8,7,23.9,47.6,,22.8,24.6,58.4,67.2,27.7,32.7,25.4,24.4,
COc1ccc(-n2c(C)nc3ccc(NC4OC(COC(C)=O)C(OC(C)=O)C(OC(C)=O)C4OC(C)=O)cc3c2=O)cc1 (stereo not drawn),> 100,57.3,> 100,> 100,> 100,> 100,> 100,47.5,> 100,> 100,> 100,> 100,> 100,
CC(C)(C)C1CC[C@H](O)[C@H]([C@@H](O)CC2CC(=O)N(c3ccccc3)C(=O)C2)C1 (stereo partly drawn),> 100,> 100,> 100,> 100,> 100,> 100,> 100,> 100,> 100,> 100,> 100,> 100,> 100,
N=c1oc2ccccc2cc1C(=O)Nc1ccccn1,> 100,> 100,> 100,> 100,54,> 100,> 100,,> 100,> 100,> 100,> 100,> 100,
COc1cc(C)cc2c1C(=O)C(NC(C)=O)=CC2=O,> 100,> 100,> 100,> 100,> 100,31.3,32.8,> 100,> 100,> 100,> 100,> 100,> 100,
Cc1cc(O)c(C(O)c2ccccn2)cc1O (stereo not drawn),18.4,24.2,70.3,> 100,40.1,35.3,36.2,14.7,72.6,> 100,10.2,41.1,,
CCCCCCCCCCCCCCCCNc1nc(=O)n(C2CC(O)C(COP(=O)(O)OC3CC(n4cc(F)c(=O)[nH]c4=O)OC3CO)O2)cc1F (stereo not drawn),> 100,> 100,11,5.4,> 72.1,> 100,> 100,55.4,46,3.39,13.1,> 100,> 59,
O=C(O)c1cc(-c2ccc3cc(O)c(O)cc3c2)ccc1O,> 12.5,> 12.5,,> 12.5,> 12.5,> 12.5,> 12.5,> 12.5,> 12.5,> 12.5,> 12.5,> 12.5,> 12.5,
Cc1cc(NS(=O)(=O)c2ccc(NC(=O)c3ccc4nc5ccccc5c(Nc5ccc(S(N)(=O)=O)cc5)c4c3)cc2)no1,45.6,> 100,> 100,> 100,61.8,45.3,66,37.7,> 100,> 100,73.4,72.3,57.8,
CCOC1OC(CO[Si](C)(C)C(C)(C)C)C(O)CC1n1ccc(=O)[nH]c1=O (stereo not drawn),> 100,> 100,> 100,,> 100,> 100,> 100,45.6,> 100,> 100,> 100,52,> 100,
CCOP(=O)(OCC)/C(C#N)=C/c1cccn1C,> 100,> 100,> 100,> 100,> 100,> 100,> 100,> 100,> 100,> 100,> 100,> 100,> 100,
CCOC(=O)C1Cc2ccc(C)cc2C1=O (stereo not drawn),> 100,> 100,> 100,> 100,> 100,> 100,> 100,,> 100,,> 100,> 100,> 100,
N#Cc1ccc(N=NN2CCCC2)cc1,> 100,> 100,> 100,> 100,,> 100,> 100,> 100,> 100,> 100,> 100,> 100,> 100,
N#Cc1ccccc1NC(=O)C(O)C(O)C(O)C(O)C=O (stereo not drawn),> 100,> 100,> 100,,> 100,> 100,> 100,> 100,> 100,> 100,> 100,> 100,> 100,
C1=C(c2ccccc2)NC2=N[C@H]3CCCC[C@@H]3N2C1c1ccccc1 (stereo partly drawn),26.6,29.6,28.4,,26.6,26.4,29,,28.7,27.7,39.3,26,27.7,
